Test results: PMC3362318 (Invertebrate Neuroscience, 2012)

Experiments:
[1] = molecular target: T1, Hco-L-AChR1 (Haemonchus contortus, UniProt A9XX24+D6MYE9+D6MYF3+D6MYF4); assay: two-electrode voltage clamp, Xenopus oocytes, dose-response; assay type: cell-based
[2] = molecular target: T2, Hco-L-AChR2 (Haemonchus contortus, UniProt D6MYE9+D6MYF3+D6MYF4); assay: two-electrode voltage clamp, Xenopus oocytes, peak current; assay type: cell-based; conditions: agonist; -60 mV, 1 mM external CaCl2, pH 7.3, BAPTA-AM treated
T2 sequence (D6MYE9 21-498): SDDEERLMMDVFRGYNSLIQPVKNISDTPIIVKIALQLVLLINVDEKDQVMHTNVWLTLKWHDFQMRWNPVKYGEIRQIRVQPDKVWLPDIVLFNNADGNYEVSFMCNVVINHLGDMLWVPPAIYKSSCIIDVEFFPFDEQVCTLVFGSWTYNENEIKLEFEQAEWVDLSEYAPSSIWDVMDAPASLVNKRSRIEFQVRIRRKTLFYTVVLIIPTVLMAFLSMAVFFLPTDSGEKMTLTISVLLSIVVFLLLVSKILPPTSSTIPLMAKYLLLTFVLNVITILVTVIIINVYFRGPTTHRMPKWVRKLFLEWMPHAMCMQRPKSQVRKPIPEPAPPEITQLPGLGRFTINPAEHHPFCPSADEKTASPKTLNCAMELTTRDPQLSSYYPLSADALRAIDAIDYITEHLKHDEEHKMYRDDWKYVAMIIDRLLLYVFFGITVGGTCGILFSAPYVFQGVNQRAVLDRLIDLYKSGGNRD
T2 sequence (D6MYF3 20-512): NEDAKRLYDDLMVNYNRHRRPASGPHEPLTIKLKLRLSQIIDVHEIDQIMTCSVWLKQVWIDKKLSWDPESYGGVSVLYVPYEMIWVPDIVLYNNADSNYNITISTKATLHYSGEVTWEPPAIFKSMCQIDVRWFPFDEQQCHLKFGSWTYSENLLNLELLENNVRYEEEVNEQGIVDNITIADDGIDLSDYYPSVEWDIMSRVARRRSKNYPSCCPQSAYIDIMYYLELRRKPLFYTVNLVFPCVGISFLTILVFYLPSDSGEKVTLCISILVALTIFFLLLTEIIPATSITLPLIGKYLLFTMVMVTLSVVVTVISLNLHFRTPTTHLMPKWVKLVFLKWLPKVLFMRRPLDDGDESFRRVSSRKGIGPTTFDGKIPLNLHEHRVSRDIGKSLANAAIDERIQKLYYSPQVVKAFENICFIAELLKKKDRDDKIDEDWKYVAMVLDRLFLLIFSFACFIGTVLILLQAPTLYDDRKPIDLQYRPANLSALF
T2 sequence (D6MYF4 22-504): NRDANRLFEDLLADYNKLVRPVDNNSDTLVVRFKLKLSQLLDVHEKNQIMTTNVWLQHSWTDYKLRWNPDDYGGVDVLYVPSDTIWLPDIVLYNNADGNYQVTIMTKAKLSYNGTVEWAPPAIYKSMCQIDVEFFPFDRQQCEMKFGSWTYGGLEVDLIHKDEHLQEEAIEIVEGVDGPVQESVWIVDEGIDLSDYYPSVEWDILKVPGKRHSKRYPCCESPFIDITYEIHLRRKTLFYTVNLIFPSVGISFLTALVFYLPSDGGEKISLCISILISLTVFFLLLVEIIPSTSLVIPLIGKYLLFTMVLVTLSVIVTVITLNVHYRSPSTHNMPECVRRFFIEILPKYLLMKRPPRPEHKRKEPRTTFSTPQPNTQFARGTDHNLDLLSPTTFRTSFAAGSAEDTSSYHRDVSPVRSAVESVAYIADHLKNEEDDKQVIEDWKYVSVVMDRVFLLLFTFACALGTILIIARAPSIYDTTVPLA

[3] = molecular target: T1, Hco-L-AChR1; conditions: agonist; 30 μM; -60 mV, 1 mM external CaCl2, pH 7.3, BAPTA-AM treated

T1 sequence (A9XX24 19-536, one chain of several): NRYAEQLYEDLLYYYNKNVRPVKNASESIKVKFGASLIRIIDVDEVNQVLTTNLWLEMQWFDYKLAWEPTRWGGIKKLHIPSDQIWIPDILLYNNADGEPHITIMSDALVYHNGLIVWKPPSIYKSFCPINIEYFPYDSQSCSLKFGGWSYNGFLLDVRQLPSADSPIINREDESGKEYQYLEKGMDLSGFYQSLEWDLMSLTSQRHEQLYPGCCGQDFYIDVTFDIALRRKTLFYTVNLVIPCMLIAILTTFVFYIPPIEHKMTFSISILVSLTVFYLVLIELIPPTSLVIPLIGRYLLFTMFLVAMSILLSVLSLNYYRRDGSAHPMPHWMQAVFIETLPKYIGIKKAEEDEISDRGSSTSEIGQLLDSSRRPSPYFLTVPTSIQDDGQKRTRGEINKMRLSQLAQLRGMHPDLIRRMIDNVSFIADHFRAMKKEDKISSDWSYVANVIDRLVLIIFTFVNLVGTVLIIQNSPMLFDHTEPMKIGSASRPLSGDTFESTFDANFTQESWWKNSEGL

| Structure (SMILES) | EC50 [1] | two-electrode voltage clamp, Xenopus oocytes, peak current [2] | two-electrode voltage clamp, Xenopus oocytes, peak current [3] |
| --- | --- | --- | --- |
| C[N+](C)(CCOc1ccccc1)Cc1ccccc1 [Beph, bephenium] | 7.7 ± 0.6 µM |  |  |
| c1ccc([C@H]2CN3CCSC3=N2)cc1 [Lev, levamisole] | 6.08 ± 0.3 µM | Hco-L-AChR2 potency series was: pyrantel > acetylcholine > nicotine > levamisole |  |
| CN1CCC[C@H]1c1cccnc1 [Nic, nicotine] |  | Hco-L-AChR2 potency series was: pyrantel > acetylcholine > nicotine > levamisole |  |
| CN1CCCN=C1/C=C/c1cccs1 [Pyr, pyrantel] |  | Hco-L-AChR2 potency series was: pyrantel > acetylcholine > nicotine > levamisole | levamisole > acetylcholine > pyrantel > nicotine for the Hco-L-AChR1 |
